14 compounds from the SangsterLogP compilation can be followed below.

`C=C(C)CC(C)(C)C`: the lipophilicity (logP) – broadly, a log measure of how a compound divides between an organic and an aqueous phase – came to 5.44.
Compound `c1ccc2c(c1)ccc1cc3c(ccc4ccccc43)cc12` returned a logP of 6.88.
The figure for `c1ccc(Cc2ccccc2)cc1` is 4.22.
The compound `BrCC(Br)C(Br)CBr` (centres undefined) gave a lipophilicity (logP) of 3.22.
In turn, `Clc1cc(Cl)c(-c2c(Cl)cc(Cl)cc2Cl)c(Cl)c1` yielded a logP of 6.39.
With `CC(C)CC(C)(C)C` the figure was 5.83; with `CCCCCCCCCCCCCCCCCCCl`, 8.7.
`Brc1ccc(Br)s1` returned a log partition coefficient (logP) of 4.15.
In turn, `CCCCC(CC)CCl` (centres undefined) gave a log partition coefficient (logP) of 5.2.
With `C=CCCCCCCC=C` the figure was 5.7; with `CCCCCCCCCC`, 6.69.
Compound `CCCCCCCCCCCCCCCCC` had a lipophilicity (logP) of 8.92.
The figure for `c1ccc(C2CCCCC2)cc1` is 5.54; for `CCCCCCC(=O)OC` it is 3.1.
